# Legend:
# Assay in all cases: relative viability (nuclei count vs DMSO), 5 days (fraction); higher = more cells survive
# [1] = compound: CO[C@@H]1[C@H](N(C)C(=O)c2ccccc2)C[C@H]2O[C@]1(C)n1c3ccccc3c3c4c(c5c6ccccc6n2c5c31)C(=O)NC4 [Midostaurin] + CC(=O)c1c(C)c2cnc(Nc3ccc(N4CCNCC4)cn3)nc2n(C2CCCC2)c1=O [Palbociclib] (partner 0.5 µM)
# Method in brief: (§1)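 Five library-drug doses in √10 steps were combined with a fixed anchor-drug dose, or a single drug was given alone, by pin tool to lung cancer cell lines in 1536-well plates the day after seeding. Nuclei were stained and counted after 5 days. Relative viability is the nuclei count in treated wells over that in vehicle wells, taken as the median of duplicate plates.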
# Midostaurin + Luminespib = compound: CO[C@@H]1[C@H](N(C)C(=O)c2ccccc2)C[C@H]2O[C@]1(C)n1c3ccccc3c3c4c(c5c6ccccc6n2c5c31)C(=O)NC4 [Midostaurin] + CCNC(=O)c1noc(-c2cc(C(C)C)c(O)cc2O)c1-c1ccc(CN2CCOCC2)cc1 [Luminespib] (partner 0.01 µM)
# Method in brief: as §1
# [2] = compound: COc1cc(-c2nn([C@H]3CC[C@H](N4CCN(C(C)=O)CC4)CC3)c3ncnc(N)c23)ccc1NC(=O)c1cc2ccccc2n1C + CC(=O)Nc1cccc(-n2c(=O)n(C3CC3)c(=O)c3c(Nc4ccc(I)cc4F)n(C)c(=O)c(C)c32)c1 [Trametinib] (partner 0.02 µM)
# Method in brief: as §1
# [3] = compound: COc1cc(-c2nn([C@H]3CC[C@H](N4CCN(C(C)=O)CC4)CC3)c3ncnc(N)c23)ccc1NC(=O)c1cc2ccccc2n1C + C[C@]1(O)C[C@@H](c2nc(-c3ccc4ccc(-c5ccccc5)nc4c3)c3c(N)nccn32)C1 [Linsitinib] (partner 1 µM)
# Method in brief: as §1
# [4] = compound: COc1cc(-c2nn([C@H]3CC[C@H](N4CCN(C(C)=O)CC4)CC3)c3ncnc(N)c23)ccc1NC(=O)c1cc2ccccc2n1C + Nc1ncn([C@H]2C[C@H](O)[C@@H](CO)O2)c(=O)n1 [Decitabine] (partner 2 µM)
# Method in brief: as §1
Cell Line,relative viability ([1]; first compound 0.01 µM),relative viability ([1]; first compound 0.03162 µM),relative viability ([1]; first compound 0.1 µM),relative viability ([1]; first compound 0.3162 µM),relative viability (Midostaurin + Luminespib; first compound 0.01 µM),relative viability (Midostaurin + Luminespib; first compound 0.03162 µM),relative viability (Midostaurin + Luminespib; first compound 0.1 µM),relative viability (Midostaurin + Luminespib; first compound 0.3162 µM),relative viability ([2]; first compound 0.0128 µM),relative viability ([2]; first compound 0.04048 µM),relative viability ([2]; first compound 0.128 µM),relative viability ([2]; first compound 1.28 µM),relative viability ([3]; first compound 0.0128 µM),relative viability ([3]; first compound 0.04048 µM),relative viability ([3]; first compound 0.128 µM),relative viability ([3]; first compound 1.28 µM),relative viability ([4]; first compound 0.0128 µM),relative viability ([4]; first compound 0.04048 µM),relative viability ([4]; first compound 0.128 µM),relative viability ([4]; first compound 1.28 µM)
BEN,0.515,0.473,0.52,0.467,0.541,1.23,0.396,0.457,1.07,0.97,0.953,0.838,0.815,0.926,0.851,0.644,0.571,0.733,0.708,0.582
COR-L23,0.259,0.346,0.285,0.207,0.605,0.644,0.541,0.625,0.585,0.25,0.564,0.592,0.866,0.96,0.992,0.924,0.509,0.451,0.446,0.499
COR-L 105,0.414,0.416,0.396,0.4,0.597,0.686,0.777,0.621,0.481,0.489,0.412,0.298,1.04,0.77,0.898,0.549,0.645,0.724,0.653,0.559
EKVX,0.443,0.45,0.362,0.401,0.883,0.868,0.823,0.749,0.406,0.236,0.305,0.236,1.2,1.12,0.918,0.499,0.372,0.36,0.349,0.288
EMC-BAC-2,0.489,0.531,0.489,0.456,1.11,1.05,0.898,1.16,0.901,0.537,0.834,1.02,0.869,0.806,0.815,0.521,1,0.941,0.913,0.955
EPLC-272H,0.291,0.355,0.302,0.3,0.323,,0.333,0.48,0.331,0.205,0.278,0.24,1.45,1.21,0.878,1.04,0.444,0.315,0.342,0.312
H3255,0.317,0.327,0.333,0.342,1.14,0.848,0.779,0.848,0.611,0.44,0.613,0.499,1.04,0.935,0.887,0.663,0.617,0.504,0.609,0.472
HARA,0.316,0.283,0.278,0.242,0.917,0.712,0.681,0.76,0.617,0.273,0.56,0.418,1,0.873,0.891,0.62,0.609,0.699,0.612,0.381
HCC-15,0.806,0.788,0.771,0.73,0.305,0.38,0.308,0.165,0.421,0.269,0.394,0.294,0.922,0.807,0.815,0.662,0.822,0.589,0.638,0.567
HCC-44,1.01,1.02,0.942,0.99,,1.1,0.964,1.11,1.19,0.716,1.07,1.03,0.764,0.687,0.692,0.536,1.13,0.979,0.846,1.04
HCC-827,0.423,0.521,0.503,0.506,0.51,0.644,0.709,0.813,0.574,0.341,0.525,0.286,0.957,1.02,0.958,0.995,0.336,0.318,0.357,0.29
HOP-62,0.452,0.48,0.455,0.501,0.871,0.875,0.934,0.984,0.428,0.173,0.376,0.296,0.955,0.964,0.881,0.843,0.241,0.191,0.207,0.283
LC-2-ad,0.482,0.53,0.536,0.566,0.953,0.955,0.925,0.996,0.956,0.536,0.895,0.895,0.659,0.846,0.835,0.681,0.818,0.778,0.723,0.854
LCLC-97TM1,0.276,0.233,0.251,0.244,0.836,0.713,0.749,0.763,0.22,0.125,0.139,0.133,0.183,0.205,0.173,0.238,0.295,0.224,0.257,0.235
LCLC-103H,0.449,0.484,0.512,0.542,0.906,0.875,0.847,0.674,0.717,0.58,0.583,0.664,1.12,1.21,0.957,1.01,0.832,0.725,0.691,0.759
LK-2,0.595,0.692,0.701,0.861,0.191,0.221,0.187,0.199,0.978,0.399,0.577,0.47,0.554,0.522,0.461,0.231,0.339,0.253,0.288,0.248

Cell Line,relative viability ([1]; first compound 0.01 µM),relative viability ([1]; first compound 0.03162 µM),relative viability ([1]; first compound 0.1 µM),relative viability ([1]; first compound 0.3162 µM),relative viability (Midostaurin + Luminespib; first compound 0.01 µM),relative viability (Midostaurin + Luminespib; first compound 0.03162 µM),relative viability (Midostaurin + Luminespib; first compound 0.1 µM),relative viability (Midostaurin + Luminespib; first compound 0.3162 µM),relative viability ([2]; first compound 0.0128 µM),relative viability ([2]; first compound 0.04048 µM),relative viability ([2]; first compound 0.128 µM),relative viability ([2]; first compound 1.28 µM),relative viability ([3]; first compound 0.0128 µM),relative viability ([3]; first compound 0.04048 µM),relative viability ([3]; first compound 0.128 µM),relative viability ([3]; first compound 1.28 µM),relative viability ([4]; first compound 0.0128 µM),relative viability ([4]; first compound 0.04048 µM),relative viability ([4]; first compound 0.128 µM),relative viability ([4]; first compound 1.28 µM)
LOU-NH91,0.514,0.527,0.499,0.552,0.328,0.347,0.394,0.309,0.821,0.828,0.822,0.728,0.889,1.02,1.02,0.833,0.792,0.898,0.842,0.804
LU99A,0.386,0.513,0.371,0.386,0.268,0.221,0.228,0.291,0.578,0.288,0.529,0.489,0.555,0.563,0.543,0.524,0.808,0.601,0.949,0.994
LXF-289,0.625,0.615,0.645,0.642,0.692,0.706,0.482,0.596,0.78,0.468,0.692,0.811,1.02,0.927,0.939,1.08,0.419,0.368,0.369,0.362
NCI-H23,0.49,0.506,0.377,0.309,0.263,0.251,0.227,0.197,0.405,0.25,0.281,0.226,0.613,0.417,0.612,0.49,0.283,0.291,0.291,0.298
NCI-H322M,0.475,0.483,0.528,0.559,0.826,0.829,0.969,1.23,0.453,0.489,0.491,0.463,0.9,0.909,0.767,0.803,0.659,0.682,0.648,0.63
NCI-H358,0.123,0.134,0.114,0.136,0.241,0.309,0.263,0.298,0.153,0.125,0.131,0.115,0.664,0.73,0.681,0.462,0.224,0.206,0.246,0.167
NCI-H441,0.265,0.219,0.234,0.189,0.379,0.358,0.429,0.351,0.438,0.463,0.407,0.336,0.555,0.612,0.603,0.491,0.246,0.286,0.321,0.24
NCI-H460,0.13,0.195,0.183,0.0929,0.0367,0.0356,0.0302,0.0369,0.111,0.0655,0.148,0.058,0.662,1.09,0.669,0.344,0.495,0.452,0.451,0.433
NCI-H520,0.24,0.228,0.246,0.276,0.221,0.204,0.235,0.258,0.606,0.354,0.55,0.361,0.715,0.795,0.9,0.683,0.508,0.502,0.436,0.368
NCI-H647,0.462,0.396,0.485,0.465,0.191,0.181,0.141,0.264,0.543,0.265,0.333,0.169,1.3,1.36,1.14,0.785,0.451,0.424,0.406,0.364
NCI-H650,0.347,0.34,0.318,0.313,0.76,0.826,0.8,0.771,0.993,0.501,1.15,0.879,0.854,1.26,0.894,0.64,0.319,0.35,0.304,0.306
NCI-H661,0.399,0.41,0.438,0.469,0.799,0.783,0.924,1.04,0.474,0.469,0.557,0.506,0.618,0.507,0.448,0.357,0.513,0.532,0.511,0.509
NCI-H727,0.628,0.666,0.66,0.634,0.343,0.335,0.264,0.902,0.415,,0.37,0.341,0.401,,0.162,0.33,0.925,,1.01,0.84
NCI-H838,0.237,0.229,0.251,0.185,0.32,0.362,0.322,0.299,0.5,0.479,0.506,0.403,0.974,1.1,1.06,0.657,0.484,0.505,0.518,0.432
NCI-H1355,0.409,0.429,0.443,0.468,0.682,0.762,0.666,0.702,0.416,0.313,0.387,0.447,0.997,0.867,0.918,0.818,0.332,0.35,0.338,0.372

# From the supplement of paper PMC10307832
